Experimental data taken from US20210244735A1, “COMPOSITIONS AND METHODS FOR TREATING MYELOFIBROSIS” (Impact Biomedicines, Inc., priority 2010, published 2021).
Where a name gives a salt, the structure may show the parent alone.

How the values were obtained:
[1] = system: serum EPO and TPO; assay: Phase 1 study: serum EPO and TPO levels; assay type: in vivo, human; conditions: after treatment initiation (data not shown)
[2] = Phase 1 study: plasma pharmacokinetics, non-compartmental analysis; assay type: in vivo, human
Description: Pharmacokinetics: The concentration—time curves of TG101348 in plasma were evaluated by a non-compartmental analysis (with the use of WinNonlin® software, version 5.2).

[3] = mean, 240 mg/day (n=3), Cycle 1 Day 28
[4] = mean, 360 mg/day (n=3), Cycle 1 Day 28
[5] = mean, 800 mg/day (n=5), Cycle 1 Day 28

SMILES: Cc1cnc(Nc2ccc(OCCN3CCCC3)cc2)nc1Nc1cccc(S(=O)(=O)NC(C)(C)C)c1 [TG101348, N-tert-butyl-3-[(5-methyl-2-{[4-(2-pyrrolidin-1-ylethoxy)phenyl]amino}pyrimidin-4-yl)amino]benzenesulfonamide dihydrochloride monohydrate]
- serum EPO and to a lesser extent TPO levels relative to baseline [1]: increases
- plasma concentration over at least 24 hours after the dose ([2]; 360 mg/day, Cycle 1 Day 28): above IC90
- plasma concentration over at least 24 hours after the dose ([2]; 520 mg/day, Cycle 1 Day 28): above 3×IC90
- increase of mean steady-state AUC0-t over a 27-fold increase in dose ([2]; in vivo): ~88 fold
- increase of mean steady-state C. over a 27-fold increase in dose ([2]; in vivo): approximately 54 fold
- λz (elimination rate constant) ([2]; mean, 30 mg/day (n=3), Cycle 1 Day 28): 0.0354 h⁻¹
- λz (elimination rate constant) ([2]; mean, 60 mg/day (n=3), Cycle 1 Day 28): 0.0456 h⁻¹
- λz (elimination rate constant) ([2]; mean, 120 mg/day (n=3), Cycle 1 Day 28): 0.0305 h⁻¹
- T1/2 (terminal half-life) [2, 3]: 20.77 h
- λz (elimination rate constant) [2, 3]: 0.0352 h⁻¹
- Cmax [2, 4]: 1717.33 ng/mL
- T1/2 (terminal half-life) [2, 4]: 21.39 h
- λz (elimination rate constant) [2, 4]: 0.0353 h⁻¹
- λz (elimination rate constant) ([2]; mean, 520 mg/day (n=3), Cycle 1 Day 28): 0.0343 h⁻¹
- λz (elimination rate constant) ([2]; mean, 680 mg/day (n=27), Cycle 1 Day 28): 0.0301 h⁻¹
- T1/2 (terminal half-life) [2, 5]: 23.99 h
- λz (elimination rate constant) [2, 5]: 0.0331 h⁻¹
